“Also recorded” adds a separate entry of the source.
How the values were obtained:
[1] = system: pJSNX-GFP (SNX7 minigene ON-switch) in HEK293 cells; test: GFP expression from SNX7 minigene ON-switch in HEK293 cells (fluorescent microscope, FACS); format: cell-based, human; conditions: LMI070 2 nm-1 uM, 48 hours post transfection, vs DMSO
Protocol: (§1) HEK293 cells were maintained in complete DMEM media and seeded in 24-well plate at 100,000 cells per well densite day before transfection. Each well was transfected with 2 ug of pJSNX-GFP plasmid DNA using Lipofectamine2000 (Invitrogen) according to manufacturer's protocol. Transfection media was replaced with complete DMEM 4 hours later. Initial 1 mM stock of LMI070 in DMSO was diluted in 1/1,000-1/500,000 in DMEM to achieve concentrations 2 nm-1 uM when added to the cells in 24 hours later. Control cells received 0.1% DMSO. GFP expression was evaluated 48 hours post transfection using fluorescent microscope. […] For quantitative analysis of GFP expression, cells were trypsinized and analyzed by FACS using SONY SH-800 flow cytometer. Mean fluorescence intensity was used for relative measurement of GFP expression. […] For RNA splicing analysis, total RNA was extracted from cells using Trizol (Invitrogen) according to manufacturer's protocol. cDNA was synthesized using Superscript III 1st strand supermix for qRT-PCR (Invitrogen). Inclusion of exon B was evaluated using qPCR by measuring amounts of exonB-exonC amplified by […] […] Amounts of constitutively spliced RNA (i.e. exonA-exonC) was measured using […] […]

[2] = system: SNX7 minigene exon B inclusion in HEK293 cells; test: RNA splicing analysis by qPCR in pJSNX-GFP transfected HEK293 cells; format: cell-based, human
Protocol: as §1

[3] = system: SNX7 minigene exon B inclusion in primary rat neurons; test: RNA splicing analysis by qPCR in pJSNX-GFP transfected primary rat neurons; format: cell-based
Protocol: Primary rat neurons were prepared from dissected rat embryo cortices digested with papain and cultured in complete Neurobasal media in 24-well poly-D-Lysine plates (Corning) at density 150,000 cells/well for 7 days. Half of the media was replaced with fresh media day before transfection. Each well was transfected with 2 ug of pJSNX-GFP plasmid DNA using Lipofectamine2000 (Invitrogen) according to manufacturer's protocol, except cells were washed three times with optiMEM before adding DNA-liposomes cocktails. Transfection media was replaced with conditioned media containing 50% fresh complete Neurobasal media 4 hours later. Next day, 1 mM stock of LMI070 in DMSO was diluted in 1/1,000-1/500,000 in DMEM to achieve concentrations 2 nm-1 uM when added to the cells. Control cells received 0.1% DMSO. GFP expression was evaluated 6 days post transfection using fluorescent microscope. […] For RNA splicing analysis, total RNA was extracted from cells using Trizol (Invitrogen) according to manufacturer's protocol. cDNA was synthesized using Superscript III 1st strand supermix for qRT-PCR (Invitrogen). Inclusion of exon B was evaluated using qPCR by measuring amounts of exonB-exonC amplified by […] […] Amounts of constitutively spliced RNA (i.e. exonA-exonC) was measured using […] […]

[4] = system: pSyn-snx7-PGRN (SNX7 switch) in primary rat neurons; test: hPGRN expression by TR-FRET assay in pSyn-snx7-PGRN transfected primary rat neurons; format: cell-based; conditions: 100 nm LMI070, 6 days post transfection
Protocol: (§2) Primary rat neurons were prepared from dissected rat embryo cortices digested with papain and cultured in complete Neurobasal media in 24-well poly-D-Lysine plates (Corning) at density 150,000 cells/well for 7 days. Half of the media was replaced with fresh media day before transfection. […] Transfection media was replaced with conditioned media containing 50% fresh complete Neurobasal media 4 hours later. Next day, 1 mM stock of LMI070 in DMSO was diluted in 1/10,000 in DMEM to achieve concentrations 100 nm when added to the cells. Control cells received 0.01% DMSO. hPGRN expression was measured 6 days post transfection using TR-FRET assay. In pSyn-snx7-PGRN transfected cells, expression of hPGRN was induced by LMI070 more than 30 times comparing to DMSO-treated control (FIG. 6B). For RNA splicing analysis, total RNA was extracted from cells using Trizol (Invitrogen) according to manufacturer's protocol. cDNA was synthesized using Superscript III 1st strand supermix for qRT-PCR (Invitrogen). Inclusion of exon B was evaluated using qPCR by measuring amounts of exonB-exonC junction amplified by […] (SEQ ID NO: 103) and GCGGTTGCGAGGTTTATCT (SEQ ID NO: 104) primers pair as compared to total transgene mRNA amplified by primers specific to exon C, GCGGTTGCGAGGTTTATCT (SEQ ID NO: 104) and […] (SEQ ID NO: 105). […] Amounts of constitutively spliced RNA (i.e. exonA-exonC) was measured using […] […]

[5] = system: SNX7 minigene exon B inclusion in primary rat neurons; test: RNA splicing analysis by qPCR in pSyn-snx7-PGRN transfected primary rat neurons; format: cell-based; conditions: 100 nm LMI070
Protocol: as §2

[6] = system: ssAAV9 hPGRN with SNX7 switch (version 1) in mouse brain; test: Time course of hPGRN expression in mouse brain after oral LMI070 (ssAAV9 SNX7 switch version 1, TR-FRET); format: in vivo; conditions: C57Bl/6 mice
Protocol: ssAAV9 viral vector encoding hPGRN under control of synapsin promoter with SNX7 switch (version 1) was produced in HEK293 cells and purified by iodixanol. 2e10vg of AAV vector in 2 uL was injected ICV in C57Bl/6 neonatal mice at P0. At 4 weeks of age, 30 mg/kg of LMI070 or vehicle control was administered orally through gavage. 4-6 mice per group were taken down at specified time points (FIG. 7A). After transcardial perfusion with PBS posterior half of the left hemisphere was homogenyzed in Precellys tube. TR-FRET assay was used for measurement of human PGRN expressed from AAV vector. […] The transgenic protein expression returned to untreated levels after 4 days post LMI070 administration (FIG. 7B).

[7] = system: ssAAV9 hPGRN with SNX7 switch (version 1) in mouse brain; test: Dose response of hPGRN expression in mouse brain after oral LMI070 (ssAAV9 SNX7 switch version 1, TR-FRET); format: in vivo, FVB mice
Protocol: ssAAV9 viral vector encoding hPGRN under control of synapsin promoter with SNX7 switch (version 1) was produced in HEK293 cells and purified by iodixanol. 2e10vg of AAV vector in 2 uL was injected ICV in FVB neonatal mice at P0. At 4 weeks of age, 3, 10 or 30 mg/kg of LMI070 or vehicle control was administered orally through gavage. 6-7 mice per group were taken down at specified time points (FIG. 8A). After transcardial perfusion with PBS posterior half of the left hemisphere was homogenyzed in Precellys tube. TR-FRET assay was used for measurement of human PGRN expressed from AAV vector. Sample of human cortex was used as a control for physiological PGRN levels (˜200 pg/mg).

[8] = system: SNX7 minigene switch in HEK293 cells; test: Comparison of SNX7 switch version 1 and version 2 in HEK293 cells in response to LMI070; format: cell-based, human; conditions: HEK293, plasmid DL182 (version 2) vs DL180 (version 1), LMI070 100 nm-1 uM, 48 hours post transfection
Protocol: The modified SNX7 minigene (version 2) was inserted into a scAAV vector using molecular cloning techniques. The sequence of the vector comprising the modified SNX7 minigene (version 2) is shown in SEQ ID NO: 95. HEK293 cells were maintained in complete DMEM media and seeded in 24-well plate at 100,000 cells per well densite day before transfection. Each well was transfected with 2 ug of plasmid DNA DL180 containing SNX7 switch version 1 or plasmid DL182 containing SNX7 version 2 using Lipofectamine2000 (Invitrogen) according to manufacturer's protocol. Transfection media was replaced with complete DMEM 4 hours later. Initial 1 mM stock of LMI070 in DMSO was diluted in 1/1,000-1/500,000 in DMEM to achieve concentrations 100 nm-1 uM when added to the cells in 24 hours later. Control cells received 0.1% DMSO. GFP expression was evaluated 48 hours post transfection using fluorescent microscope.

Molecule | GFP expression (mean fluorescence intensity) [1] | Inclusion of exon B (exonB-exonC vs total transgene mRNA), upregulated as compared to DMSO-treated cells ([2]; HEK293, 125 nM LMI070) | exonA-exonC splicing, lower as compared to control DMSO-treated cells ([2]; HEK293, 1 uM LMI070) | Inclusion of exon B, upregulated as compared to DMSO-treated cells ([3]; 31 nM LMI070) | exonA-exonC splicing, lower as compared to control DMSO-treated cells ([3]; 500 nM LMI070) | expression of hPGRN induced, comparing to DMSO-treated control [4] | Inclusion of exon B, upregulated as compared to DMSO-treated cells [5] | exonA-exonC splicing, lower as compared to DMSO-treated cells [5] | time after which transgenic protein expression returned to untreated levels ([6]; 30 mg/kg LMI070 orally) | hPGRN expression in the brain post LMI070 administration (time course) ([6]; ssAAV9 ICV at P0, 30 mg/kg LMI070 orally at 4 weeks) | transgene expression in brain vs LMI070 dose ([7]; FVB mice, 3, 10 or 30 mg/kg LMI070 orally) | accumulation of transgenic hPGRN in the brain (time course) ([7]; FVB mice, ssAAV9 ICV at P0, 3, 10 or 30 mg/kg LMI070 orally at 4 weeks) | sensitivity of minigene switch in response to LMI070 (GFP expression) [8]
CC1(C)CC(Oc2ccc(-c3ccc(-c4cn[nH]c4)cc3O)nn2)CC(C)(C)N1 [LMI070, 5-(1H-Pyrazol-4-yl)-2-(6-((2,2,6,6-tetramethylpiperidin-4-yl)oxy)pyridazin-3-yl)phenol] | dose-dependent increase in GFP expression | 75 times | 60 times | more than 100 times | 30 times | more than 30 times | more than 150 times | 10 times | 4 days | rapid and transient induction of hPGRN expression in the brain after 24 hours post LMI070 administration; also recorded: switches on transgene expression in mouse brain in time-dependent manner | dose response; also recorded: switches on transgene expression in mouse brain in dose-dependent manner | rapid (12 hours post LMI070 administration) accumulation of transgenic hPGRN in the brain, which starts to decline at 24 hour point | 
modified SNX7 minigene (version 2): SNX7 minigene modified to reduce size and eliminate peptide expression in the absence of LMI070; tested in plasmid DL182 (nucleic acid) DNA: GAAGAAGAAGATATCAAGTTAGCATTTACAGATTTGGCTGAGGAGAAGAACAGGTAATTAGTGTTGTTTGATATTGCTTCATTTTAAAGTTATTTGCTCATTTAGCATTTGATATTGCTTTCTATTGATTGTCCTAACTACTCCTCTTTCCTCTCCCTTCTCCATTTTTGAAGAGTTTGCAAAGGAAGGAAAGGAGCAGAGACTTGATTGAGCAGAAAATCATTTCAGGGCCTGTTCTCTATTGTCCTTGCTATCCTGTCTTCTGTAGCTATCTGAAACCATCAACAAAGGAGCACACCATGGCATCAGCAAAAGAGTAACAACATCTTTTTTTAAGTTCATTTTGTTTTTCAGTTGATTGTATTTCAATTTTTTTACAGCTGACTTTTCTCAGAGAAGTTTTTTTTTTATTGTAAACATACTTTTTCTAGAAAGTATATTTTAAAATAACATCTTTAACCTTATCTCTGGCTGAATTATTGAATATTTGAAATTATTACATTAACAAAATTTTGTCTTACAGCAGTGGTCCCCAACCTTCTTAGCAGTAGCATCCCTCATTAAGAATTAAAATTTGTAGAAATTGACAAGGATTCTGACAAGCTGTTGGGAGAGAAGAATAGAGCAGATTGCAGTAGGAACAGTTGTGTTAGAATTTATTAATCCTTTAACACTGAAAGTAAACTATTGTTGATTGCCTCTTGGTGTGTTTCCATTATTCAGTGCTCTTGCTAAGTGGGAGTCATTCCTTACATCAACCACCAACCTTCACTTGGAAGAAGCTAGCGAAGATAAACCT |  |  |  |  |  |  |  |  |  |  |  |  | more sensitive than the previous version
